Source: ChEMBL document CHEMBL1201862, “PubChem BioAssay data set” (2004)
Activity calls are given as the source filed them.

How the values were obtained:
SUMO-activating enzyme [1] = molecular target: T1, SUMO-activating enzyme (Homo sapiens, UniProt Q9UBT2); experiment: blockers of SAE1/SAE2–UBC9 SUMO transfer – biochemical, HTRF, uHTS, primary screen (AID 2006); assay type: protein-complex assay
[2] = molecular target: T2, RNA-binding protein pos-1 (Caenorhabditis elegans, UniProt G5EF15); experiment: disruptors of C. elegans POS-1 RNA interaction – biochemical, fluorescence polarization, dose response (AID 1964);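 further: purified POS-1 fused to maltose binding protein made in E. coli; potency of compounds blocking POS-1 binding to fluorescent RNA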
T2 sequence (G5EF15 whole entry): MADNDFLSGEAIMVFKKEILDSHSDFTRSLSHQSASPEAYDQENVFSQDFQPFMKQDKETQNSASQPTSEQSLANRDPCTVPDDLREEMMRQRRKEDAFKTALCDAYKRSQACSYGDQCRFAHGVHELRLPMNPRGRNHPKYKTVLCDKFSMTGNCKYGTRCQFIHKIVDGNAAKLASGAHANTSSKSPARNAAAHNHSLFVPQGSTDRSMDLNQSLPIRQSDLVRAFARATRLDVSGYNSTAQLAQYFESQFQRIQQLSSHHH

SUMO-activating enzyme [3] = molecular target: T1, SUMO-activating enzyme; experiment: blockers of UBC9-mediated SUMO conjugation – biochemical, AlphaScreen, SUMOylation inhibitor project, confirmation (AID 2018); assay type: functional
[4] = molecular target: Induced myeloid leukemia cell differentiation protein Mcl-1 (Homo sapiens, UniProt Q07820); assay type: functional
[5] = molecular target: T3, Zinc finger protein mex-5 (Caenorhabditis elegans, UniProt Q9XUB2); experiment: potency of MEX-5 RNA-binding blockers – biochemical, C. elegans, fluorescence polarization, dose response (AID 1960)
T3 sequence (Q9XUB2 whole entry): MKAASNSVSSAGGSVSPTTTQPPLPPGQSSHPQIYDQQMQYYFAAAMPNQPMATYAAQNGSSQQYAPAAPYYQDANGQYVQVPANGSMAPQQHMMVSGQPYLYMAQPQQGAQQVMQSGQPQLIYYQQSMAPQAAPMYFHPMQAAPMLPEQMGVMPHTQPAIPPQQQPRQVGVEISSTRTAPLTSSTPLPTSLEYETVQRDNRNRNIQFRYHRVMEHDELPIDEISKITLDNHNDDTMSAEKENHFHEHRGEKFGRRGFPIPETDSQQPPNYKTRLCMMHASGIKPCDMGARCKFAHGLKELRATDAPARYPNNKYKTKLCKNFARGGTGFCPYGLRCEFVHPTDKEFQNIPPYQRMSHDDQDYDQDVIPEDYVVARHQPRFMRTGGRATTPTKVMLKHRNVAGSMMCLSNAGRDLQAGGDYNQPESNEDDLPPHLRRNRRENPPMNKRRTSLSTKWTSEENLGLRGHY

[6] = molecular target: T4, Ubiquitin-conjugating enzyme E2 N (Homo sapiens, UniProt P61088); assay type: functional
T4 sequence (P61088 whole entry): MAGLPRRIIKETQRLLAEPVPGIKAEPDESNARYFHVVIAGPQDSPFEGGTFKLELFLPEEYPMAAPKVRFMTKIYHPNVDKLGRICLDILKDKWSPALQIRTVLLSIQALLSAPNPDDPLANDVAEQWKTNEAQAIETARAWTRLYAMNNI

Bcl-2-related protein A1 = molecular target: T5, Bcl-2-related protein A1 (Mus musculus, UniProt Q07440); assay type: functional;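 further: confirmatory dose–response counterscreen on Bfl-1, used to check hits from a UBC13 polyubiquitin inhibitor campaign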
T5 sequence (Q07440 whole entry): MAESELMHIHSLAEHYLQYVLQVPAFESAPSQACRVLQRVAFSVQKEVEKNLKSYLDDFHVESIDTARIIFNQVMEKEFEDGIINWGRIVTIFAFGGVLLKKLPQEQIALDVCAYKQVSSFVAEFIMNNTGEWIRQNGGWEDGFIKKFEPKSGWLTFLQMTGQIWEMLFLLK

[7] = molecular target: T4, Ubiquitin-conjugating enzyme E2 N; assay type: functional; remark: listed apart in the source
[8] = molecular target: T6, Heat shock factor protein 1 (Mus musculus, UniProt P38532); experiment: enhancement of HSF1-driven luciferase signal – cell-based, NIH3T3, luminescence, dose retest, confirmation (AID 435004); assay type: functional;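 further: stress induced by proteasome inhibitor MG132 added 30 min after compound; luciferase reporter driven by HSF1 response element in NIH3T3 cells; actives raise luminescence as potentiators of the MG132 stress response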
T6 sequence (P38532 whole entry): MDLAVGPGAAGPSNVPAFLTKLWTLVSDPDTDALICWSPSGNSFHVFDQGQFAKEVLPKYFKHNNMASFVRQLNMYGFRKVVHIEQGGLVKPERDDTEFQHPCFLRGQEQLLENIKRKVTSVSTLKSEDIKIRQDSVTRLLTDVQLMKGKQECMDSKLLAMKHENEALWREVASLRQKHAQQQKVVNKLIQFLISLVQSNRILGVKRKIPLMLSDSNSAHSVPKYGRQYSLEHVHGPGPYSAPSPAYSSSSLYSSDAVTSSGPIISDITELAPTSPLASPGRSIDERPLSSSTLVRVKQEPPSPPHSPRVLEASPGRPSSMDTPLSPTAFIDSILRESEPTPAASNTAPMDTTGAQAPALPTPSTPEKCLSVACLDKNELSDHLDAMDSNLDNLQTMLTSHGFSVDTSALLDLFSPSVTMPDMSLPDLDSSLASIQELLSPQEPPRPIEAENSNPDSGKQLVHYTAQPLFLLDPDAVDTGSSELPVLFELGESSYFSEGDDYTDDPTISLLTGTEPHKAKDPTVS

[9] = molecular target: T7, Calpain-2 catalytic subunit (Sus scrofa, UniProt P43367); experiment: m-calpain protease blockers, concentration series – biochemical, fluorogenic peptide substrate, dose response (AID 1420); assay type: functional
T7 sequence (P43367 whole entry): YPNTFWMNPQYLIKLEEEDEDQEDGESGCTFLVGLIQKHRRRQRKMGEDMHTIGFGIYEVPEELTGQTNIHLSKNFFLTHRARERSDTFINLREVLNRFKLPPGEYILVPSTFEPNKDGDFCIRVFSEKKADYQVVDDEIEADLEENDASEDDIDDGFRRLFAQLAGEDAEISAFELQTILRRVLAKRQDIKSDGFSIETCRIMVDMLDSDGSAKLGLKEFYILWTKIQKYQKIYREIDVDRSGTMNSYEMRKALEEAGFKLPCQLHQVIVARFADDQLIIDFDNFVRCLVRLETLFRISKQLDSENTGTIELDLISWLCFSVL

[10] = molecular target: T8, Short transient receptor potential channel 4 (Mus musculus, UniProt Q9QUQ5); experiment: block of DAMGO-driven TRPC4 calcium entry – cell-based, HEK293 TRPC4/mu-opioid, Fluo-4 calcium, dose response (AID 434942); assay type: functional;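 further: potency of inhibitors blocking the TRPC4 calcium response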
T8 sequence (Q9QUQ5 whole entry): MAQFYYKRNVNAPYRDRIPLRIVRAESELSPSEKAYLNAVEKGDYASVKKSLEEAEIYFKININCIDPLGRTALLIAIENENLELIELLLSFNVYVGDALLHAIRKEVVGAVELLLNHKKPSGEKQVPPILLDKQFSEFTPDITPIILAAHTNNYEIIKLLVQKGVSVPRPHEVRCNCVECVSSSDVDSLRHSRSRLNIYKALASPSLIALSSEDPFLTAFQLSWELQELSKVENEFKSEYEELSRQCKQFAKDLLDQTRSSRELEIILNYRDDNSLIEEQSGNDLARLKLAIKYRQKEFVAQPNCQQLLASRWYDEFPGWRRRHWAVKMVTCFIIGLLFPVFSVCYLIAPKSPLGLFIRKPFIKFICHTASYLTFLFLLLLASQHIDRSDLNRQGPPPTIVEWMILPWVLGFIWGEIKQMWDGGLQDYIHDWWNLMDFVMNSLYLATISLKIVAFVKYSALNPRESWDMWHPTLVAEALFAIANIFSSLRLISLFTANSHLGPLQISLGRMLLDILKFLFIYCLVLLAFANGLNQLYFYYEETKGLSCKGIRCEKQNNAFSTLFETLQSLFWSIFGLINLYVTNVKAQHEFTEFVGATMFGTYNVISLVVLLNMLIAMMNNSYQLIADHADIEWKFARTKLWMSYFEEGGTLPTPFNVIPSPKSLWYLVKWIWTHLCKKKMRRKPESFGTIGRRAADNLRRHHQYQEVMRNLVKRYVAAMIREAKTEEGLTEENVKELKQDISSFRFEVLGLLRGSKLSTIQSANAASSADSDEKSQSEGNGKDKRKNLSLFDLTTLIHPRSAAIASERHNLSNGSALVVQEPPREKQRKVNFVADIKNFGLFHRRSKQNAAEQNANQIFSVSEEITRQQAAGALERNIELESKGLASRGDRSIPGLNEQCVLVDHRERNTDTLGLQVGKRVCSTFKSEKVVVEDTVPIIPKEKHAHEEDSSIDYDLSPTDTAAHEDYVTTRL

Beta-galactosidase = Beta-galactosidase (Escherichia coli, UniProt Q8VNN2); experiment: PubChem AID 485352; assay type: functional
[11] = molecular target: T9, Type-1 angiotensin II receptor (Homo sapiens, UniProt P30556); experiment: antagonism of angiotensin II type 1 receptor – cell-based, uHTS hits, selectivity assay for APJ receptor antagonist project, dose response (AID 463214); assay type: functional;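 further: antagonist potency against angiotensin II stimulated AT1 response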
T9 sequence (P30556 whole entry): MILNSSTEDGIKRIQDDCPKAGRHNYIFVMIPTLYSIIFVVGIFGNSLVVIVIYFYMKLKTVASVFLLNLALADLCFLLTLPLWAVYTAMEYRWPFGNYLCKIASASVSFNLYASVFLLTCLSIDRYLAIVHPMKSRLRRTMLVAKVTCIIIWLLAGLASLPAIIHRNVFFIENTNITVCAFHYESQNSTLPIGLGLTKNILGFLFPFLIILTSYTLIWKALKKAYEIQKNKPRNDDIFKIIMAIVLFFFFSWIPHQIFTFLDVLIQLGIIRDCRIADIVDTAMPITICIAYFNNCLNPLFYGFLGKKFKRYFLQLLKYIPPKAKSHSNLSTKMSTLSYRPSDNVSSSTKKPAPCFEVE

HEK293 = experiment: HEK293T cell viability loss, resazurin readout – resazurin fluorescence, cytotoxicity control for NF-kB activator project, SAR follow-up (AID 493251); assay type: functional, cell-based; conditions: Homo sapiens

Sequence of Beta-galactosidase (Q8VNN2 whole entry): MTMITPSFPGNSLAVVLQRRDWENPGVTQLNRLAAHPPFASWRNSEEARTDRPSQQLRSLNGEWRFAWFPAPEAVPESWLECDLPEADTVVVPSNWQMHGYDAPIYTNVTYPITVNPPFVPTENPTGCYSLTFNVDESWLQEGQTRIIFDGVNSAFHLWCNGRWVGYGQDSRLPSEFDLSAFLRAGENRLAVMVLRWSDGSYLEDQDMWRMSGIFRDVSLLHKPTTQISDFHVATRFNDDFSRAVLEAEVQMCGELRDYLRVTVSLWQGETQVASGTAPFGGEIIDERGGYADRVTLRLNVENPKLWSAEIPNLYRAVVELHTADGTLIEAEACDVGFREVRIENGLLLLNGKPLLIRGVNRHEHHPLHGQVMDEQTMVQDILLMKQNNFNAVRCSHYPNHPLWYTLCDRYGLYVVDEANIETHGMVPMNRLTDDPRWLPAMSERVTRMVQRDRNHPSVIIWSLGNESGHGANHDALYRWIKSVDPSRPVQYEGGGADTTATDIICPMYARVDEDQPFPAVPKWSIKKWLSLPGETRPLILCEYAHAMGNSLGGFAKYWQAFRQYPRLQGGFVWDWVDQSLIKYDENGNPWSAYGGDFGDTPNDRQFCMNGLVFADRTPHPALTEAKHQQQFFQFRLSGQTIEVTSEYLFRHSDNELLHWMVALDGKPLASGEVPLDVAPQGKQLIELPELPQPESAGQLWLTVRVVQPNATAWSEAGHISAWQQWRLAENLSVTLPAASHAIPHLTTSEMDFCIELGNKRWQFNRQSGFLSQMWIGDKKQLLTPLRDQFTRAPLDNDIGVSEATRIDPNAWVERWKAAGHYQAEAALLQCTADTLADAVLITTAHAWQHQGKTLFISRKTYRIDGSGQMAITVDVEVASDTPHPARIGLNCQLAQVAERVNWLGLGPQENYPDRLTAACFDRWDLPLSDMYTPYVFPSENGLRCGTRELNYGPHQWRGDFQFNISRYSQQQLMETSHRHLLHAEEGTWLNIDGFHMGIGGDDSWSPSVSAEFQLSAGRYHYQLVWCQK
T1 sequence (Q9UBE0 whole entry, the tested form may be a part): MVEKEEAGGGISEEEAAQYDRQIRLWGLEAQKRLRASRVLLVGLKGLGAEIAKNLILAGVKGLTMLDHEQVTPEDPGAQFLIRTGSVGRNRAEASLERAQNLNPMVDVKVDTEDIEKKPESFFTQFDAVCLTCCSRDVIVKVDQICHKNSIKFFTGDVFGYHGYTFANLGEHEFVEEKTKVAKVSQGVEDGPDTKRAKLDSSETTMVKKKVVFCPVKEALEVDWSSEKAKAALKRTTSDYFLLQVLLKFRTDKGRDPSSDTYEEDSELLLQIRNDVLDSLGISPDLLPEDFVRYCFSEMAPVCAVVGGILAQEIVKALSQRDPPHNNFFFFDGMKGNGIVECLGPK
T1 sequence (Q9UBT2 whole entry, the tested form may be a part): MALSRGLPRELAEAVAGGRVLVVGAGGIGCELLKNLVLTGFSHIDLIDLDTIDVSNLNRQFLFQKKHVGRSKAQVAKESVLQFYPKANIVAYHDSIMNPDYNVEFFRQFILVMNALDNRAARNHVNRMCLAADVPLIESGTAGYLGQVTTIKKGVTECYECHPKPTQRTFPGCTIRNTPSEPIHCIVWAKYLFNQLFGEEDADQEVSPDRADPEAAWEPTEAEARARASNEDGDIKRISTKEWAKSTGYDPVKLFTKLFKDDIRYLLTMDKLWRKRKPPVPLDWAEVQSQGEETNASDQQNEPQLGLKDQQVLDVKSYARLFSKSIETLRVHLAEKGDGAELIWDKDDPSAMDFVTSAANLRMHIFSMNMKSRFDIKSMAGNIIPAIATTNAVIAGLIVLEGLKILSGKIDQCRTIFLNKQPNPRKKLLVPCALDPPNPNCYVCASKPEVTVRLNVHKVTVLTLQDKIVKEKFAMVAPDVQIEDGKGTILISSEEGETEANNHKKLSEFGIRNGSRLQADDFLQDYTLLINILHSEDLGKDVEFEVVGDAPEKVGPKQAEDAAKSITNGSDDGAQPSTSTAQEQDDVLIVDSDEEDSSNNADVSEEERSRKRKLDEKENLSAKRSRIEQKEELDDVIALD
Sequence of Induced myeloid leukemia cell differentiation protein Mcl-1 (Q07820 whole entry): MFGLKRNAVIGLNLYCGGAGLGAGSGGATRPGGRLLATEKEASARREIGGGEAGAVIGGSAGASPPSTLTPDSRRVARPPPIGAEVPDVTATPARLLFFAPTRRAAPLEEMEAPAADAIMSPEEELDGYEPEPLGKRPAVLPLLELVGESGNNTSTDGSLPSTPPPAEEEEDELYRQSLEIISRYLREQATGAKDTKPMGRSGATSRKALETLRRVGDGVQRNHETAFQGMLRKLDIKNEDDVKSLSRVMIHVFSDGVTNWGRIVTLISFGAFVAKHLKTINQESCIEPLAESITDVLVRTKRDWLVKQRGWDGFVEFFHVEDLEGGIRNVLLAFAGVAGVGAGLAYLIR

`CC1=C(C#N)C(=O)NC(=O)/C1=C/c1ccc(-c2ccc(S(N)(=O)=O)cc2)o1` was tested, and the IC50 (SUMO-activating enzyme [1]) was 25.7 µM (active), the EC50 [2] was > 300 µM (inconclusive) and the IC50 (SUMO-activating enzyme [3]) was 6.48 µM (active). The IC50 [4] was 1.59 µM (active) and the EC50 [5] was > 300 µM (not active).
`O=C(CSc1cc(Cl)ccc1Cl)NCC(=O)Nc1ccc(F)c(F)c1F` was tested, and the IC50 [6] was 18.8 µM (active), the IC50 (Bcl-2-related protein A1) was > 20 µM (inactive) and the IC50 [7] was 15.6 µM (active). For the same molecule, the EC50 [8] was > 260 µM (inactive).
For `COc1cccc(O)c1CN1CCCC(C(=O)c2cccc(C(F)(F)F)c2)C1` (configuration not stated), the IC50 [9] was 11.5 µM (not active) and the EC50 [10] was 2.11 µM (active).
With `CNC(=O)c1ccsc1NC(=O)C1CCCN1S(=O)(=O)c1cccs1` (configuration not stated) the IC50 [6] was > 20 µM (inactive), the IC50 (Bcl-2-related protein A1) was > 20 µM (inactive) and the IC50 [7] was 19.3 µM (active).
With `CC(=O)Nc1ccc(NC(=O)CCC(=O)OCC(=O)c2cccc([N+](=O)[O-])c2)cc1` the EC50 (Beta-galactosidase) was > 40 µM (inactive) and the IC50 [11] was 26 µM (not active).
With `O=C(Nc1nnc(SCc2ccc(F)cc2)s1)c1cnccn1` the EC50 (Beta-galactosidase) was > 40 µM (inactive) and the IC50 [11] was > 40 µM (not active).
`CC(C)(C)c1ccc(-c2noc(CCC(=O)O)n2)cc1` was tested, and the IC50 (HEK293) was > 80 µM (inactive).
For `CCOC(=O)c1c(C)c2c(n1C)CCC/C2=N\O`, the IC50 [6] was 8.75 µM (active), the IC50 (Bcl-2-related protein A1) was > 20 µM (inactive) and the IC50 [7] was 19.5 µM (active).
